What was measured:
Assay in all cases: relative viability (nuclei count vs DMSO), 5 days (fraction); higher = more cells survive
Bortezomib + Alpelisib = compound: CC(C)C[C@H](NC(=O)[C@H](Cc1ccccc1)NC(=O)c1cnccn1)B(O)O [Bortezomib] + Cc1nc(NC(=O)N2CCC[C@H]2C(N)=O)sc1-c1ccnc(C(C)(C)C(F)(F)F)c1 [Alpelisib] (partner 2 µM)
Method in brief: (§1)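 Dosing by pin tool came one day after lung cancer cell lines were seeded in 1536-well plates, using either one drug or a fixed anchor-drug dose plus five library-drug doses (not always all listed) in √10 steps. After 5 days, nuclei were counted on 4× images. Relative viability is treated-well nuclei count divided by vehicle-well nuclei count, and values are medians of duplicate plates.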

[1] = compound: CC1=CC(=NN1)NC2=CC(=NC(=N2)/C=C/C3=CC=CC=C3)N4CCN(CC4)C + CC1(C)CCC(c2ccc(Cl)cc2)=C(CN2CCN(c3ccc(C(=O)NS(=O)(=O)c4ccc(N[C@H](CCN5CCOCC5)CSc5ccccc5)c(S(=O)(=O)C(F)(F)F)c4)cc3)CC2)C1 [Navitoclax] (partner 0.5 µM)
Method in brief: as §1

[2] = compound: CC1=CC(=NN1)NC2=CC(=NC(=N2)/C=C/C3=CC=CC=C3)N4CCN(CC4)C + C[C@]1(O)C[C@@H](c2nc(-c3ccc4ccc(-c5ccccc5)nc4c3)c3c(N)nccn32)C1 [Linsitinib] (partner 1 µM)
Method in brief: as §1

Obatoclax + Vorinostat = compound: COC1=CC(c2cc3ccccc3[nH]2)=N/C1=C\c1[nH]c(C)cc1C [Obatoclax] + O=C(CCCCCCC(=O)Nc1ccccc1)NO [Vorinostat] (partner 1 µM)
Method in brief: as §1

| Cell Line | relative viability (Bortezomib + Alpelisib; first compound 0.0002 µM) | relative viability (Bortezomib + Alpelisib; first compound 0.000632 µM) | relative viability (Bortezomib + Alpelisib; first compound 0.002 µM) | relative viability (Bortezomib + Alpelisib; first compound 0.006325 µM) | relative viability (Bortezomib + Alpelisib; first compound 0.02 µM) | relative viability ([1]; first compound 0.08 µM) | relative viability ([1]; first compound 0.253 µM) | relative viability ([1]; first compound 0.8 µM) | relative viability ([1]; first compound 2.53 µM) | relative viability ([1]; first compound 8 µM) | relative viability ([2]; first compound 0.08 µM) | relative viability ([2]; first compound 0.253 µM) | relative viability ([2]; first compound 0.8 µM) | relative viability ([2]; first compound 2.53 µM) | relative viability ([2]; first compound 8 µM) | relative viability (Obatoclax + Vorinostat; first compound 0.01 µM) | relative viability (Obatoclax + Vorinostat; first compound 0.03162 µM) | relative viability (Obatoclax + Vorinostat; first compound 0.1 µM) | relative viability (Obatoclax + Vorinostat; first compound 0.3162 µM) | relative viability (Obatoclax + Vorinostat; first compound 1 µM) |
| --- | --- | --- | --- | --- | --- | --- | --- | --- | --- | --- | --- | --- | --- | --- | --- | --- | --- | --- | --- | --- |
| NCI-H596 | 0.541 | 0.431 | 0.42 | 0.174 | 0.128 | 0.91 | 1.04 | 0.705 | 0.489 | 0.27 | 0.941 | 1.18 | 1.16 | 0.757 | 0.409 | 0.555 | 0.467 | 0.543 | 0.585 | 0.296 |
| NCI-H647 | 1.07 | 1.24 | 0.881 | 0.0394 | 0.0242 | 1.05 | 1.38 | 1.07 | 0.0912 | 0.0329 | 1.06 | 1.25 | 1.21 | 0.0813 | 0.0644 | 0.667 | 0.523 | 0.652 | 0.304 | 0.161 |
| NCI-H727 | 0.5 | 0.514 | 0.494 | 0.14 | 0.106 | 0.423 | 0.483 | 0.378 | 0.286 | 0.0872 | 0.208 | 0.342 | 0.261 | 0.221 | 0.1 | 1.18 | 1.14 | 1.29 | 1.05 | 1.3 |
| NCI-H838 | 0.977 | 0.983 | 1.13 | 0.475 | 0.134 | 1.22 | 1.22 | 0.866 | 0.305 | 0.134 | 0.999 | 1.25 | 0.857 | 0.747 | 0.122 | 0.687 | 0.7 | 0.736 | 0.678 | 0.36 |
| NCI-H1355 | 0.826 | 0.783 | 0.685 | 0.137 | 0.126 | 0.878 | 0.961 | 0.974 | 0.701 | 0.386 | 0.797 | 0.843 | 0.779 | 0.62 | 0.41 | 0.623 | 0.625 | 0.627 | 0.601 | 0.623 |
| NCI-H1395 | 1.15 | 1.06 | 0.387 | 0.411 | 0.393 | 1.32 | 1.27 | 1.59 | 0.676 | 0.308 | 1 | 1.15 | 1.04 | 0.533 | 0.361 | 0.996 | 0.643 | 0.642 | 0.635 | 0.596 |
| NCI-H1437 | 0.951 | 0.975 | 1.05 | 0.0854 | 0.0875 | 1.06 | 1.12 | 1.03 | 0.816 | 0.175 | 1.09 | 1.12 | 0.88 | 0.416 | 0.083 | 0.834 | 0.808 | 0.791 | 0.696 | 0.589 |
| NCI-H1651 | 1 | 0.87 | 0.748 | 0.114 | 0.0938 | 0.974 | 1.11 | 0.837 | 0.424 | 0.129 | 0.904 | 1.2 | 0.855 | 0.607 | 0.144 | 0.587 | 0.491 | 0.512 | 0.384 | 0.595 |

From the supplement of paper PMC10307832
